Results reported in patent US7723537B2, “Skin lightening agents, compositions and methods” (Unilever Home & Personal Care USA, Division of Conopco, Inc., priority 2004, dated 2010).

What was measured:
mushroom tyrosinase = test: Mushroom tyrosinase assay; assay type: biochemical; conditions: for Tyrosinase activity (% of ethanol control): slope of 475-nm absorbency vs ethanol control, L-DOPA substrate; for effectiveness in skin lightening as measured by the mushroom tyrosinase assay (in words): compared with 4-ethyl resorcinol
Protocol: Mushroom tyrosinase inhibition is indicative of reduction in melanin synthesis, thereby showing skin lightening effect.
Into each well of a 96-well plate, 150 microliters of phosphate buffer (100 mM, pH 7.0), 10 microliters of L-DOPA (L-3,4-Dihydroxyphenylalanine, 10 mM), and 20 microliters of skin lightening agent (dissolved in ethanol, which is the control) were added. Following an initial measurement of background absorbency at 475-nm, 20 microliters of mushroom tyrosinase (Sigma T-7755; 6050 units/ml) was added and incubated at room temperature.
Absorbency was read at 475-nm over the following time points: 0, 2, 4, and 6.5 minutes. The data is plotted as 475-nm absorbency vs. time (minutes) and the slope of the line is calculated (ΔAbs 475 nm/min). Values are expressed as the percentage of the respective untreated ethanol control reaction.

B16 mouse melanoma cells = test: Cell based assay: melanin synthesis in B16 mouse melanoma cells; conditions: 6.25 micromolar, 72 hours, absorbency of medium at 530 nm, read-out: % of Control (Melanin Synthesis)
Protocol: This experiment was carried out using a cell based assay.
B16 mouse melanoma cells were utilized in the following experiment to evaluate the efficacy of skin lightening agents. B16 cells were plated in 96-well microtiter plates at a density of 5000 cells per well and cultured overnight in Dulbecco's Modified Eagle's Medium (phenol red free) containing 10% fetal bovine serum and 1% penicillin/streptomycin at 37° C. in the presence of 5% CO2. After 24 hours, the medium was replaced with fresh growth medium containing the treatments. All cultures were incubated for 72 hours at which time melanin was visible in the control treatment. The melanin-containing medium was transferred to a clean 96-well plate and quantified by reading the absorbency at 530-nm. Cell viability was assessed by measurement of lactate dehydrogenase levels to ensure the decrease in melanin was not a result of cellular toxicity.

Structure (SMILES): CCc1ccc(O)cc1O [4-Ethyl Resorcinol, reference compound]
- Tyrosinase activity (% of ethanol control) (mushroom tyrosinase; 0.1 micro-M): 72.7%
- Tyrosinase activity (% of ethanol control) (mushroom tyrosinase; 1 micro-M): 46.3%
- Tyrosinase activity (% of ethanol control) (mushroom tyrosinase; 10 micro-M): 30.8%
- Tyrosinase activity (% of ethanol control) (mushroom tyrosinase; 100 micro-M): 20.7%
- activity at 6.25 µM (B16 mouse melanoma cells): 34%

Structure (SMILES): O=c1ccc2ccc(O)cc2o1 [7-Hydroxy Coumarin, reference compound]
- Tyrosinase activity (% of ethanol control) (mushroom tyrosinase; 0.1 micro-M): 104%
- Tyrosinase activity (% of ethanol control) (mushroom tyrosinase; 1 micro-M): 100%
- Tyrosinase activity (% of ethanol control) (mushroom tyrosinase; 10 micro-M): 108%
- Tyrosinase activity (% of ethanol control) (mushroom tyrosinase; 100 micro-M): 117%

Structure (SMILES): CC1CC(=O)Oc2cc(O)ccc21 (stereo not drawn) [B1, 7-hydroxy-3,4-dihydro-4-methylcoumarin]
- Tyrosinase activity (% of ethanol control) (mushroom tyrosinase; 1 micro-M): 94.2%
- Tyrosinase activity (% of ethanol control) (mushroom tyrosinase; 1.56 micro-M): 90.4%
- Tyrosinase activity (% of ethanol control) (mushroom tyrosinase; 12.5 micro-M): 70.4%
- Tyrosinase activity (% of ethanol control) (mushroom tyrosinase; 100 micro-M): 75.3%
- effectiveness in skin lightening as measured by the mushroom tyrosinase assay (in words) (mushroom tyrosinase): not effective in skin lightening
- activity at 6.25 µM (B16 mouse melanoma cells): 75.8%

Structure (SMILES): COC(=O)CC(C)c1ccc(O)cc1O (stereo not drawn) [D1, Methyl 3-(2,4-dihydroxyphenyl)-butyrate]
- Tyrosinase activity (% of ethanol control) (mushroom tyrosinase; 1 micro-M): 73.1%
- Tyrosinase activity (% of ethanol control) (mushroom tyrosinase; 1.56 micro-M): 39.3%
- Tyrosinase activity (% of ethanol control) (mushroom tyrosinase; 12.5 micro-M): 35.8%
- Tyrosinase activity (% of ethanol control) (mushroom tyrosinase; 100 micro-M): 41.0%
- effectiveness in skin lightening as measured by the mushroom tyrosinase assay (in words) (mushroom tyrosinase): substantially as effective as 4-ethyl resorcinol
- activity at 6.25 µM (B16 mouse melanoma cells): 36.4%

Structure (SMILES): CC(CC(=O)O)c1ccc(O)cc1O (stereo not drawn) [II, 3-(2,4-dihydroxyphenyl)-butyric acid]
- Tyrosinase activity (% of ethanol control) (mushroom tyrosinase; 1 micro-M): 73.3%
- Tyrosinase activity (% of ethanol control) (mushroom tyrosinase; 1.56 micro-M): 41.6%
- Tyrosinase activity (% of ethanol control) (mushroom tyrosinase; 12.5 micro-M): 28.0%
- Tyrosinase activity (% of ethanol control) (mushroom tyrosinase; 100 micro-M): 20.6%
- effectiveness in skin lightening as measured by the mushroom tyrosinase assay (in words) (mushroom tyrosinase): substantially as effective as 4-ethyl resorcinol
- activity at 6.25 µM (B16 mouse melanoma cells): 32.8%
